In US9446015B2, “Quinone based nitric oxide donating compounds for ophthalmic use” (NICOX SCIENCE IRELAND, priority 2012, dated 2016):
Read-outs that look alike come from different tables or passages of the source.

What was measured:
[1] = system: lipidic peroxidation of membrane lipids in rat hepatocytes (hepatic microsomal membranes); test: In vitro antioxidant activity (TBARS test); type: biochemical; conditions: read-out: Antioxidant activity IC50 μM (CL 95%)
Description: The antioxidant properties of compounds (6) (disclosed in example 1) and compound (23) (disclosed in example 19) and reference antioxidant compounds were assessed after NADPH-induced lipidic peroxidation of membrane lipids in rat hepatocytes using the detection of 2-thiobarbituric acid reactive substances (TBARS) by visible spectroscopy.
Hepatic microsomal membranes from male Wistar rats (200-250 g) were prepared by differential centrifugation (8000 g, 20 min; 120000 g, 1 h) in a HEPES/sucrose buffer (10 mM, 250 mM, pH 7.4) and stored at −80° C. Incubation was performed at 37° C. in a Tris-HCl/KCl (100 mM/150 mM, pH 7.4) containing microsomal membranes (2 mg prot/mL), sodium ascorbate (100 μM), and DMSO solutions of the tested compounds. Lipid peroxidation was initiated by adding ADP-FeCl3 and NADPH (Method A) or 2.5 μM FeSO4 (Method B) (as described by Boschi D. et al., J. Med. Chem. 2006, 49:2886-2897). Aliquots were taken from the incubation mixture at 5, 15, and 30 min and treated with trichloroacetic acid (TCA) 10% w/v. Lipid peroxidation was assessed by spectrophotometric (543 nm) determination of the TBARS consisting mainly of malondialdehyde (MDA). TBARS concentrations (expressed in nmol/mg protein) were obtained by interpolation with a MDA standard curve. The antioxidant activity of tested compounds was evaluated as the percent inhibition of TBARS production with respect to control samples, using the values obtained after 30 min of incubation. IC50 values were calculated by nonlinear regression analysis.

[2] = system: hypertonic saline-induced IOP increase in rabbits; test: IOP lowering activity in hypertonic saline-induced IOP increase in rabbits; type: in vivo, New Zealand White rabbits
From the text: Intraocular pressure (IOP) lowering activity in hypertonic saline-induced IOP increase in rabbits.
This animal model of elevated IOP was used for assessing the intraocular pressure (IOP) lowering activities of some compounds of the invention, timolol, dorzolamide and 5-isosorbide mononitrate.
• compounds (6), (20) and (25) • timolol and dorzolamide that are drugs commonly used for the treatment of glaucoma and ocular hypertension. • Isosorbide mononitrate (5-ISMN) that is a commonly used nitric oxide donor drug.
(§1) Timolol, dorzolamide and 5-ISMN were tested as reference compounds. Adults male New Zealand White rabbits weighting 1.8-2.0 Kg were used in the experiments.
IOP was measured using a Tono-Pen XL prior to hypertonic saline injection (basal) and at 30, 60, 120 and 240 min thereafter. Vehicle (5% cremophor-EL; 0.3% DMSO; 0.2 mg/ml BAK in PBS pH 6.0) and all the tested compounds dissolved in the vehicle were instilled as eye drops immediately after hypertonic saline injection. Eyes were randomly assigned to different treatment groups. Vehicle and the tested compounds were directly instilled into the conjunctiva pocket at the desired doses. One drop of 0.4% oxybuprocaine hydrochloride (Novesine, Sandoz) was instilled in each eye immediately before each set of pressure measurements.
Results are reported in Table 6, the ocular hypotensive activities of the tested compounds are expressed as IOP change at 60 and 120 minutes after topical administration versus vehicle and versus the basal IOP.

[3] = system: isolated aortas from rats; test: Ex vivo tolerance evaluation, vascular response of isolated rat aortas; type: cell-based; conditions: for EC50 at 30 mg/kg: Rattus norvegicus, read-out: EC50 (μM), vascular response to 5-ISMN
Description: (§2) Thoracic aortas from male New Zealand rabbits or male Sprague Dawley (SD) were used. The aortas were placed immediately in Krebs-HEPES buffer (pH 7.4; composition mM: NaCl 130.0, KCl 3.7, NaHCO3 14.9, KH2PO4 1.2, MgSO4.7H2O 1.2, Glucose 11.0, HEPES 10.0, CaCl2.2H2O 1.6). Connective tissue was removed and aortas were cut into ring segments (4-5 mm in length). Each ring was placed in a 5 mL tissue bath filled with Krebs-HEPES buffer (37° C.) aerated with 95% O2 and 5% CO2 and was attached to a force transducer (Grass FT03), connected to a BIOPAC MP150 System for measurement of the isometric tension. Preparations were allowed to equilibrate for 1 h at a resting tension of 2 g for rabbit aortas and 1 g for rat aortas with changes of the buffer every 15 min. Then the rings were stimulated by exposure to 90 mM KCl (3 times) with intervening washings.
(§3) Rat aorta. After equilibration, rat aortas were precontracted with KCl (90 mM) and, when the contraction was stable, a cumulative concentration-response curve to acetylcholine (ACh, 0.01-100 μM) was added. After washout, the rings were precontracted again with KCl (90 mM). When a steady-state level of contraction was obtained, a cumulative concentration-response curve to the tested compounds (0.01-100 μM) was obtained.
(§4) Data analysis. Results are given as mean±SEM. Vascular responses are expressed as percentage relaxation and plotted vs concentration. The sensitivity of isolated aorta to different vasodilators is expressed as the concentration that elicited 50% of the maximal responses (EC50). Responses are quantified in terms of EC50 and Emax (maximal vasodilating effect) values, obtained from the concentration-response curve by nonlinear curve fitting, using GraphPad software.
Tolerance to nitrate was further investigated assessing the vascular effects of Compound (6) following repeated treatment compared with 5-ISMN. The vascular response to the compound itself was assessed on isolated aortas from rats orally treated for 5 days with Compound (6) (100 mg/kg). The vascular response was performed as described in Example 6.
Vascular responses were performed 1 h (ISMN) or 3 h (Compound (6)) after the last administration, the concentrations of tested compound that elicited the 50% of the maximal responses (EC50) are shown in Table 4.

[4] = system: ocular normotensive New Zealand rabbits; test: IOP lowering activity in ocular normotensive New Zealand rabbits; type: in vivo, New Zealand White rabbits
Description: Intraocular pressure (IOP) lowering activity in ocular normotensive New Zealand rabbits.
• compound (6) • timolol that is a drug commonly used for the treatment of glaucoma and ocular hypertension. • Isosorbide mononitrate (5-ISMN) that is a commonly used nitric oxide donor drug.
as §1
IOP was measured using a pneumatonometer 30 CLASSIC™ before topical application (basal) and a different time point (30, 60, 120, 240 and 300 min) thereafter. Vehicle (5% cremophor-EL; 0.3% DMSO; 0.2 mg/ml BAK in PBS pH 6.0) or tested compounds dissolved in the vehicle were instilled as eye drops into the conjunctiva pocket. Eyes were randomly assigned to different treatment groups. One drop of 0.4% oxybuprocaine hydrochloride (Novesine, Sandoz) was instilled in each eye immediately before each set of pressure measurements.
The test results are reported in Table 7, the ocular hypotensive activity is expressed as IOP changes at 30, 60, 120 and 300 minutes after topical administration versus vehicle and versus IOP at basal.

[5] = system: endothelial-dependent vasodilation of rat aortas; test: Endothelial dysfunction evaluation, vascular response to acetylcholine; type: cell-based; conditions: 5-ISMN 30 mg/kg; for Emax at 30 mg/kg: Rattus norvegicus, read-out: % relaxation (Emax), response to acetylcholine
Description: as §2, §3, §4
Endothelial-dependent vasodilation (vascular response to acetylcholine, ACh) was assessed following 5-day treatment with Compound (6) (100 mg/kg) or 5-ISMN (30 mg/kg). A relaxant response to ACh indicated the presence of a functional endothelium. The vascular response was performed as described in Example 6.

[6] = system: rat L-NAME-induced hypertension; test: Systolic blood pressure in rat L-NAME-induced hypertension, single oral dose; type: in vivo; conditions: for Delta vs basal (mmHg), systolic blood pressure: 5-ISMN 30 mg/kg oral
Description: To assess the in vivo NO-dependent activity, Compound (6) was evaluated for systolic blood pressure (SBP) reduction efficacy in a rat model of NO-deprivation induced by L-NAME and compared with 5-ISMN.
(§5) Fasted male SD rats (250-300 g, n=3-5 per group), obtained from Harlan Italy (Correzzana, Milan, Italy) were orally treated with tested compounds or vehicle (DMSO:Methocel 1% 2/98 v/v) in a total volume of 4 ml/kg by gavage. At each time point (1, 3, 6 and 24 h) animals were deeply anesthetized with Zoletil® 100 (3 mg/kg), given intramuscularly. Thereafter, a pressure catheter (Samba Sensors, Harvard Apparatus, UK) was introduced into the common carotid artery for central blood pressure measurement. Pressure transducer was connected to a personal computer, in order to allow real time monitor of the pressure tracing. After 10 minutes of basal recording, L-NAME (50 mg/kg) was administered intraperitoneally and the effect on SBP monitored. When the SBP stabilized (5 minutes without variations) the recording was stopped. To further confirm that functional activity was NO-dependent, at each time point blood ^15N-nitrite levels were measured following the procedure described in Example 12.

[7] = system: rat L-NAME-induced hypertension; test: In vivo tolerance evaluation, L-NAME-induced hypertension after 5-day oral treatment; conditions: 5-ISMN 30 mg/kg; for Delta vs basal (mmHg): peak effect 1 hour
Description: as §5
To investigate whether the compound (6) induced nitrate tolerance, as observed for most of the drugs belonging to the nitrate class, the L-NAME-induced hypertension rat model described in Example 7 was performed following a repeated oral treatment. Rats were orally treated for 5 days with vehicle, compound (6) (100 mg/kg) or 5-ISMN (30 mg/kg). […] The experiments were performed at the peak effect (1 hour for 5-ISMN and 3 hours for Compound (6)), results are reported in Table 3.

[8] = system: lipidic peroxidation of membrane lipids in rat hepatocytes (hepatic microsomal membranes); conditions: Method B; from Chegaev et al.; read-out: Antioxidant activity IC50 μM (CL 95%); cited from earlier work
[9] = 60 min after topical administration
[10] = 120 min after topical administration
[11] = 30 min after topical administration
[12] = 300 min after topical administration
[13] = Method A (ADP-FeCl3 and NADPH), inhibition of TBARS production after 30 min

SMILES: O=C(O)/C=C/c1ccc(O)c(O)c1 [Caffeic acid]
- IC50 ([1]; Method B (2.5 μM FeSO4)): 33 µM

SMILES: CC1=C(CCCOCCCO[N+](=O)[O-])C(=O)c2ccccc2C1=O [Compound (25), 3-(3-(3-methyl-1,4-dioxo-1,4-dihydronaphthalen-2-yl)propoxy)propyl nitrate]
- ΔΔ (mmHg), IOP change versus vehicle and versus basal IOP [2, 9]: −11.5 ± 2.8 mmHg
- ΔΔ (mmHg), IOP change versus vehicle and versus basal IOP [2, 10]: −10.2 ± 1.3 mmHg

SMILES: O=[N+]([O-])O[C@@H]1CO[C@H]2[C@@H]1OC[C@@H]2O [Compound 5-ISMN, isosorbide-5-mononitrate]
- vascular sensitivity of aortas of treated animals to the compound itself versus vehicle/control arteries ([3]; 5-day oral treatment, 5-ISMN 30 mg/kg, Compound (6) 100 mg/kg): showed a reduced vascular response
- EC50 at 30 mg/kg ([3]; 1 h): 20 ± 0.6 µM
- EC50 at 30 mg/kg [3]: 127 ± 48 µM
- ΔΔ (mmHg), IOP change versus vehicle and versus IOP at basal [4, 11]: −1.5 ± 0.3 mmHg
- ΔΔ (mmHg), IOP change versus vehicle and versus IOP at basal [4, 9]: −1.7 ± 0.4 mmHg
- ΔΔ (mmHg), IOP change versus vehicle and versus IOP at basal [4, 10]: −0.6 ± 0.4 mmHg
- ΔΔ (mmHg), IOP change versus vehicle and versus IOP at basal [4, 12]: −0.8 ± 0.4 mmHg
- effect on endothelial-dependent vasorelaxation (response to ACh) ([5]; 5-day treatment, Compound (6) 100 mg/kg): caused a reduced response to Ach
- Emax at 30 mg/kg ([5]; 120 h, repeated (5-day treatment)): 78.2 ± 9.2%
- Emax at 30 mg/kg ([5]; acute): 92.7 ± 4.3%
- ΔΔ (mmHg), IOP change versus vehicle and versus basal IOP [2, 9]: −0.7 ± 2.9 mmHg
- ΔΔ (mmHg), IOP change versus vehicle and versus basal IOP [2, 10]: −6.6 ± 1.8 mmHg
- Delta vs basal (mmHg), systolic blood pressure ([6]; 1 hour): 10.5 ± 6.1 mmHg
- Delta vs basal (mmHg), systolic blood pressure ([6]; 3 hours): 6.5 ± 2.4 mmHg
- Delta vs basal (mmHg), systolic blood pressure ([6]; 6 hours): 51.2 ± 5.7 mmHg
- Delta vs basal (mmHg), systolic blood pressure ([6]; 24 hours): 83 ± 9 mmHg
- time over which L-NAME induced hypertension was counteracted after treatment ([6]; single oral administration, 5-ISMN 30 mg/kg, Compound (6) 100 mg/kg): 3 h
- efficacy in preventing L-NAME-induced hypertension after 5-day oral treatment ([7]; compound (6) 100 mg/kg): did not maintain its efficacy
- Delta vs basal (mmHg) ([7]; acute): 10.5 ± 6.1 mmHg
- Delta vs basal (mmHg) ([7]; repeated (5 days oral)): 88 ± 11.5 mmHg

SMILES: COC1=C(OC)C(=O)C(CCCCCCCCCCO)=C(C)C1=O [Idebenone]
- IC50 [1, 13]: 1.6 µM

SMILES: COC1=C(OC)C(=O)C(CCCOCCO[N+](=O)[O-])=C(C)C1=O [Compound (20), 2-(3-(4,5-dimethoxy-2-methyl-3,6-dioxocyclohexa-1,4-dienyl)propoxy)ethyl nitrate]
- ΔΔ (mmHg), IOP change versus vehicle and versus basal IOP [2, 9]: −18.9 ± 2.4 mmHg
- ΔΔ (mmHg), IOP change versus vehicle and versus basal IOP [2, 10]: −9.1 ± 1.6 mmHg

SMILES: CC1=C(CCCCCCO[N+](=O)[O-])C(=O)c2ccccc2C1=O [Compound (23), 6-(3-methyl-1,4-dioxo-1,4-dihydronaphthalen-2-yl) hexyl nitrate]
- IC50 [1, 13]: 1.4 µM

SMILES: CC1=NN(c2ccccc2)C(=O)C1 [Edavarone]
- IC50 [8]: 17 µM

SMILES: CC(C)(C)NC[C@H](O)COc1nsnc1N1CCOCC1 [Timolol, timolol]
- ΔΔ (mmHg), IOP change versus vehicle and versus IOP at basal [4, 11]: −0.4 ± 0.4 mmHg
- ΔΔ (mmHg), IOP change versus vehicle and versus IOP at basal [4, 9]: −0.7 ± 0.4 mmHg
- ΔΔ (mmHg), IOP change versus vehicle and versus IOP at basal [4, 10]: −0.9 ± 0.4 mmHg
- ΔΔ (mmHg), IOP change versus vehicle and versus IOP at basal [4, 12]: −0.05 ± 0.4 mmHg
- ΔΔ (mmHg), IOP change versus vehicle and versus basal IOP [2, 9]: −5.7 ± 1.4 mmHg
- ΔΔ (mmHg), IOP change versus vehicle and versus basal IOP [2, 10]: −8.4 ± 1.2 mmHg

SMILES: COc1ccc2[nH]cc(CCNC(C)=O)c2c1 [Melatonin]
- IC50 [8]: 476 µM

SMILES: CCN[C@H]1C[C@H](C)S(=O)(=O)c2sc(S(N)(=O)=O)cc21 [Dorzolamide, dorzolamide]
- ΔΔ (mmHg), IOP change versus vehicle and versus basal IOP [2, 9]: −6.9 ± 2.1 mmHg
- ΔΔ (mmHg), IOP change versus vehicle and versus basal IOP [2, 10]: −6.7 ± 1.7 mmHg
